Data from patent US20250059139A1, “COMPOUNDS FOR TREATMENT OF CANCER” (THE JOHNS HOPKINS UNIVERSITY, priority 2021, published 2025).

Tests used:
CWR22-RH PDXs = assay: RNA sequencing of in vivo growing CWR22-RH PDXs in castrate hosts; design: species or system human; settings: TasQ 10 mg/kg/d orally vs. vehicle control
Protocol: RNA Sequencing Analysis of In vivo Growing Xenografts. This was performed as described previously (Brennen 2021; Zhu 2020) with read counts normalized per kilo base-pair gene length and per million reads library size (RPKM).
RNAseq analysis was performed on CWR22-RH PDX tissue growing in the compromised hypoxic TME of castrated hosts with or without daily oral TasQ (10 mg/kg/d). Such dosing produces optimal CWR22-RH growth inhibition (FIG. 1) consistent with downregulation of the expression of proliferation-associated target genes in addition to the AR and its target genes (Table 1A). In addition, such daily TasQ treatment lowers HIF-1α protein in tumors by >50% (Olsson 2010) suppressing HIF1-dependent cell survival target genes (Table 1B). […] As predicted at this drug level, elevated expression of AHR and a series of its target genes is observed (Table 1C).

HUVEC = assay: mRNA expression of HUVEC in 3D-fibrin gels with HDF-conditioned media; assay type: cell-based, human; settings: Fibroblast Conditioned Media: Yes, TasQ (10 μM): Yes
Protocol: Three Dimensional (3D) Endothelial Sprouting Assay. The assay was performed using a minimum of 3 replicate wells of a 48 well tissue culture plate per drug dose per experiment, repeated 3 independent times in which human umbilical vein endothelial cells (HUVECs) obtained from Lonza Walkersville Inc (Walkersville, MD) attached to gelatin-coated dextran microcarrier bead are embedded in a fibrin matrix as described previously (Brennen et al. Oncotarget 7, 71298-71308 (2016)).
Besides its therapeutic effects on cancer cells, TasQ's anti-cancer efficacy also involves its dose-dependent anti-angiogenic activity (see, e.g., Isaacs 2006, Olsson 2010, Dalrymple 2012), Isaacs 2013, Isaacs 2014, Brennen 2016). To clarify the MoA for this anti-angiogenic activity, a 3-dimensional (3D) endothelial cell sprouting assay was used. In this assay, human umbilical vein endothelial cells (HUVECs) in basal media supplemented with VEGF, EGF, FGF, IGF1 and 2% FBS in standard 2D cultures are attached to collagen-coated beads embedded in a 3D-fibrin gel in the same growth factor-supplemented media. […] This lack of sprouting is associated with an upregulation in Mef-2c mRNA (Table 2) and protein (FIG. 38), and its target genes (Table 2) like Alpha 2 Macroglobulin (A2M). […] When the 3D-fibrin gels are further supplemented with conditioned media (CM) from human dermal fibroblasts (HDF) to provide additional angiogenic factors typically present within the TME A2M (Nakatsu et al. Microvasc Res 66, 102-112 (2003)), expression of the MEF-2c target genes, including A2M, is blocked (Table 2); enabling endothelial cell proliferation and invasion into the gels (i.e., “sprouting”); eventually forming canalized and anastomosing neovascular tubes within 7 days (FIG. 37). Importantly, 3D-sprouting occurs (FIG. 37), even when HIF-1α expression is KD in the HUVEC cells (FIG. 39).

`COc1cccc2c1c(O)c(C(=O)N(C)c1ccc(C(F)(F)F)cc1)c(=O)n2C` [TasQ, Tasquinimod] was tested, and the “AGR2, AHR Target Genes (Fold Increases by TasQ)” value (CWR22-RH PDXs) was 5.5 fold, the “AHR, AHR Target Genes (Fold Increases by TasQ)” value (CWR22-RH PDXs) was 3.0 fold and the “ALDOC, HIF-1α Target Genes (Fold Decrease by TasQ)” value (CWR22-RH PDXs) was −1.4 fold. The “AR, AR Target Genes (Fold Decrease by TasQ)” value (CWR22-RH PDXs) was −2.0 fold, the “BHLHE41, MEF-2 Target Genes (Fold Increase by TasQ)” value (CWR22-RH PDXs) was 2.9 fold and the “BNIP3, HIF-1α Target Genes (Fold Decrease by TasQ)” value (CWR22-RH PDXs) was −1.9 fold. The “CA12, MEF-2 Target Genes (Fold Increase by TasQ)” value (CWR22-RH PDXs) was 2.7 fold, the “CAPN2, MEF-2 Target Genes (Fold Increase by TasQ)” value (CWR22-RH PDXs) was 1.6 fold and the “CDC6, Proliferation Target Genes (Fold Decrease by TasQ)” value (CWR22-RH PDXs) was −1.5 fold. For the same compound, the “CDT1, Proliferation Target Genes (Fold Decrease by TasQ)” value (CWR22-RH PDXs) was −2.2 fold, the “CEACAM1, MEF-2 Target Genes (Fold Increase by TasQ)” value (CWR22-RH PDXs) was 1.8 fold and the “CYP1B1, AHR Target Genes (Fold Increases by TasQ)” value (CWR22-RH PDXs) was 10.0 fold. The “DTYMK, Proliferation Target Genes (Fold Decrease by TasQ)” value (CWR22-RH PDXs) was −1.6 fold, the “E2F1, Proliferation Target Genes (Fold Decrease by TasQ)” value (CWR22-RH PDXs) was −2.0 fold and the “EDN1, MEF-2 Target Genes (Fold Increase by TasQ)” value (CWR22-RH PDXs) was 15.0 fold. For the same compound, the “GDF15, AHR Target Genes (Fold Increases by TasQ)” value (CWR22-RH PDXs) was 2.3 fold, the “HILPDA, HIF-1α Target Genes (Fold Decrease by TasQ)” value (CWR22-RH PDXs) was −1.7 fold and the “IGF1, HIF-1α Target Genes (Fold Decrease by TasQ)” value (CWR22-RH PDXs) was −11.0 fold. The “IGFBP2, HIF-1α Target Genes (Fold Decrease by TasQ)” value (CWR22-RH PDXs) was −1.8 fold, the “IGFBP5, HIF-1α Target Genes (Fold Decrease by TasQ)” value (CWR22-RH PDXs) was −18.0 fold and the “KLKP1, AR Target Genes (Fold Decrease by TasQ)” value (CWR22-RH PDXs) was −2.3 fold. The “LDHA, HIF-1α Target Genes (Fold Decrease by TasQ)” value (CWR22-RH PDXs) was −1.5 fold, the “LOX, HIF-1α Target Genes (Fold Decrease by TasQ)” value (CWR22-RH PDXs) was −4.0 fold and the “MCM2, Proliferation Target Genes (Fold Decrease by TasQ)” value (CWR22-RH PDXs) was −1.9 fold. The “MCM3, Proliferation Target Genes (Fold Decrease by TasQ)” value (CWR22-RH PDXs) was −1.6 fold, the “MCM5, Proliferation Target Genes (Fold Decrease by TasQ)” value (CWR22-RH PDXs) was −2.0 fold and the “MKI67, Proliferation Target Genes (Fold Decrease by TasQ)” value (CWR22-RH PDXs) was −1.7 fold. The “NKX3.1, AR Target Genes (Fold Decrease by TasQ)” value (CWR22-RH PDXs) was −2.3 fold, the “NQO1, AHR Target Genes (Fold Increases by TasQ)” value (CWR22-RH PDXs) was 2.9 fold and the “NR4A1, MEF-2 Target Genes (Fold Increase by TasQ)” value (CWR22-RH PDXs) was 1.4 fold. The “NR4A2, MEF-2 Target Genes (Fold Increase by TasQ)” value (CWR22-RH PDXs) was 1.8 fold, the “P4HA1, HIF-1α Target Genes (Fold Decrease by TasQ)” value (CWR22-RH PDXs) was −1.8 fold and the “PDK1, HIF-1α Target Genes (Fold Decrease by TasQ)” value (CWR22-RH PDXs) was −1.7 fold. The “PTN, HIF-1α Target Genes (Fold Decrease by TasQ)” value (CWR22-RH PDXs) was −6.1 fold, the “S100P, MEF-2 Target Genes (Fold Increase by TasQ)” value (CWR22-RH PDXs) was 5.7 fold and the “SLC45A3, AR Target Genes (Fold Decrease by TasQ)” value (CWR22-RH PDXs) was −3.7 fold. The “THB5, MEF-2 Target Genes (Fold Increase by TasQ)” value (CWR22-RH PDXs) was 8.0 fold, the “TIPARP, AHR Target Genes (Fold Increases by TasQ)” value (CWR22-RH PDXs) was 3.4 fold and the “TMPRSS2, AR Target Genes (Fold Decrease by TasQ)” value (CWR22-RH PDXs) was −1.9 fold. The “TNC, HIF-1α Target Genes (Fold Decrease by TasQ)” value (CWR22-RH PDXs) was −2.5 fold, the “TTR, HIF-1α Target Genes (Fold Decrease by TasQ)” value (CWR22-RH PDXs) was −3.8 fold and the “VEGFB, HIF-1α Target Genes (Fold Decrease by TasQ)” value (CWR22-RH PDXs) was −1.5 fold. The A2M Gene Expression (FPKM), Mef-2c Target Gene (HUVEC) was 257 FPKM, the Adamt59 Gene Expression (FPKM), Mef-2c Target Gene (HUVEC) was 89.2 FPKM and the Apinr Gene Expression (FPKM), Mef-2c Target Gene (HUVEC) was 81.1 FPKM. The Ets1 Gene Expression (FPKM) (HUVEC) was 73 FPKM, the Ets2 Gene Expression (FPKM) (HUVEC) was 45.2 FPKM and the KDR (VEGFR2) Gene Expression (FPKM), Ets Target Gene (HUVEC) was 99.3 FPKM. For the same compound, the “LI1 (VEGFR1) Gene Expression (FPKM), Ets Target Gene” value (HUVEC) was 106,830 FPKM, the “Mef-2c Target Gene Expression, Gene Expression (FPKM)” value (HUVEC) was 21,217 FPKM and the “NR4A1 Gene Expression (FPKM), Mef-2c Target Gene” value (HUVEC) was 1,598 FPKM. For the same compound, the “NR4A2 Gene Expression (FPKM), Mef-2c Target Gene” value (HUVEC) was 297 FPKM, the “SerpinB1 Gene Expression (FPKM), Mef-2c Target Gene” value (HUVEC) was 4,926 FPKM and the “Spry Gene Expression (FPKM), Mef-2c Target Gene” value (HUVEC) was 11,728 FPKM. The “Stc1 Gene Expression (FPKM), Mef-2c Target Gene” value (HUVEC) was 18,619 FPKM.
